The text below walks through data of EP1192149B1, “1,4-DITHIIN AND 1,4-DITHIEPIN- 1,1,4,4, TETROXIDE DERIVATIVES USEFUL AS ANTAGONISTS OF THE HUMAN GALANIN RECEPTOR” (Ortho-McNeil Pharmaceutical, Inc., priority 1999, dated 2000).

For one test, the target named is T1, hGALR-1 (Homo sapiens, UniProt P47211).
T1 construct: hGALR-1 that is contained in membranes from human Bowes melanoma cells; endogenous in cells; host or cells: human Bowes melanoma cells (membranes)
T1 sequence (P47211 1-349): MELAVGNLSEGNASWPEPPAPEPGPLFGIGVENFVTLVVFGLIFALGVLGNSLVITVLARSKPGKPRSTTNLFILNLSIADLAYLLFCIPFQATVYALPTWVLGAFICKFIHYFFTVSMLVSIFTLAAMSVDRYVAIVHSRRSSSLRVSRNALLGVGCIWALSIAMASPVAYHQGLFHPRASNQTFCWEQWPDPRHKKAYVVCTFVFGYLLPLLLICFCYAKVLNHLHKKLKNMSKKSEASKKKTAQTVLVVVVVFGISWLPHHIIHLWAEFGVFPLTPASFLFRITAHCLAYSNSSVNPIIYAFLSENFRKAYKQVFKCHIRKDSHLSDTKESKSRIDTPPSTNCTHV
The experiment in a line: Human Galanin-1 Receptor Binding Assay (SPA, 125I human galanin displacement). As to conditions: membranes from human Bowes melanoma cells. Here is the method:
This assay determines the concentration (IC50) of a test compound which prevents 50% of galanin from binding to the hGALR-1 that is contained in membranes from human Bowes melanoma cells bound to wheat germ agglutinin conjugated Scintillation Proximity Assay (SPA) beads. The IC50 value is obtained by measuring the effect of half log increment dilutions of the test compound in duplicate using a 96-well plate (eight-rows, 12-columns).
The SPA beads (500 mg) were dissolved in 12.5 mL of assay buffer composed of 20mM DMSO-HEPES (pH 7.4), 0.1% bovine serum albumin, 2mM MgCl2, 2mM CaCl2, and protease inhibitors. Enough of this suspension for five plates (25 µL x 5 x 96 wells = 12000 µL) was dispensed into a 50 mL sterile Falcon tube. The amount of membranes required for five plates was then added (50µg x 5 x 96 wells), followed by 32.5 mL of 30% DMSO-HEPES buffer. The mixture was placed on a rotator and agitated for 0.5 hours and the non-specific binding sites on the beads were blocked by the addition of 5% [final] fetal bovine serum. Each well of the 96-well plate received 100 µL of this mixture.
To the control column (column 12) rows A and B was added 3.75 µL of a 300 µM solution of galantide in 30% DMSO-HEPES buffer, to rows C and D was added 3.75 µL of 30% DMSO-HEPES buffer and to rows E and F was added 3.75 µL of a 300 µM solution of galanin in 30% DMSO-HEPES buffer. In columns 1 through 11 were added solutions of the test compound in 30% DMSO-HEPES buffer starting at 30 µM and decreasing in concentration in half-log dilutions. A solution of radioactive ^125I human galanin (46.25 µL), prepared from 25 micro Curies of ^125I human galanin (2000 ci/mmol) and 500 µL of assay buffer, was added to each well. The plate was sealed with adhesive paper and incubated for 16 hr at room temperature before the quench-corrected bound radioactivity was measured in a Topcount® apparatus. For each dilution, the % inhibition of galanin binding was calculated as follows: Total binding (T) = Mean counts/minute (cpm) in row C and D in column 12 [formula] Non-specific binding (NSB) = Mean cpm in row E and F in column 12 [formula] Total specific binding (TS) = T-NSB [formula] cpm in each well = C [formula] net cpm in each well (N) = C-NSB [formula] % inhibition = 100%-N × 100%/TS [formula]
The IC50 values for each compound were calculated from the non-linear regression curve of the data using Prism® graphics software.

Another test concerns the target T2, Rat Galanin-1 Receptor (Rattus norvegicus, UniProt Q62805).
T2 construct: Rat brain cerebrocortical tissues were chopped into slices; from tissue; host or cells: rat brain cerebrocortical slices
T2 sequence (Q62805 1-346): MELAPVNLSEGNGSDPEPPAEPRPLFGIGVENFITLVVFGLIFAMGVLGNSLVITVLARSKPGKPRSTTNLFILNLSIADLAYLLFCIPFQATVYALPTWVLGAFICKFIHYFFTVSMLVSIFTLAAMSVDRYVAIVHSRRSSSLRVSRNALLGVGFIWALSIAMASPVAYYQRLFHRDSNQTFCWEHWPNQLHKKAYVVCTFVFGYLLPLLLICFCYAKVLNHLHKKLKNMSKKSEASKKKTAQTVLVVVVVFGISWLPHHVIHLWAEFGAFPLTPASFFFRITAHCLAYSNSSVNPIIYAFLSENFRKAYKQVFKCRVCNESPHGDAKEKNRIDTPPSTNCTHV
In words: Galanin-1 receptor mediated inhibition of acetylcholine release from rat brain cortical slices (superfusion, K+-evoked [3H]acetylcholine efflux). The note with it: for Acetycholine Secretion Stimulated (change vs Control) / Acetycholine Secretion Stimulated: K+-evoked; for Acetycholine Secretion Basal / Acetycholine Secretion Stimulated: mean fractional tritium release. Here is the method: Rat brain cerebrocortical tissues were chopped into slices of 300 x 300 x […] using a Mcllwain tissue chopper. The slices were washed and incubated at 37°C for 30 min in Krebs-Ringer solution: NaCl 118 mM, KCI 4.8 mM, CaCl2 1.3 mM, KH2PO4 1.2 mM, MgSO4 1.2 mM, NaHCO3, 25 mM, glucose […], ascorbic acid […] (previously aerated for 10 min with 95% O2/5% CO2 to obtain a pH of 7.4) and 0.1 µM [Methyl-^3H]choline chloride (85 Ci/mmol, Amersham Life Sciences, Arlington Heights, IL). After incubation, the slices were washed three times with ice-cold physiological solution and resuspended in 6 ml of cold solution. Equal aliquots of the tissue suspension were placed in each of 6 parallel superfusion chambers (Hugo Sachs Elektronik, March-Hugstetten, Germany). A circular piece of nylon mesh (pore size 250 um) was placed just below each chamber outlet in order to prevent the loss of tissue. The chambers were perfused against gravity with oxygenated Krebs-Ringer containing 1 mM physostigmine hemisulfate at a flow rate of 1 ml/min. At the concentration used, physostigmine had no effect on the release of total radioactivity from tissue slices. The onset of superfusion was defined as time zero (t0). Starting at 30 min after t0, 10 min fractions of the effluent were collected.
Release of [^3H]acetylcholine was induced by superfusing tissues for 30 sec with 65mM K^+-Krebs-Ringer solution (made by isomolar replacement of NaCl with KCI). Four potassium pulses were given respectively at 40 min (S1), 70 min (S2), 100 min (S3) and 130 min (S4) after to. No significant deterioration in fractional release was observed during the 4 consecutive stimuli. […] To permit construction of concentration-effect curves, concentrations of agents were increased 10 fold between each stimulus.
Following perfusion, the tissue was homogenized in 1 ml ethanol and aliquots of superfusates (0.4ml) and tissue homogenates (0.04ml) were added to 5 ml of Scintsafe PlusTM 50% (Fisher Scientific, Pittsburgh, PA) and radioactivity counted by liquid scintillation spectrometry. The total ^3H content in this procedure consisted mainly of [^3H]acetylcholine.
Tritium (^3H) efflux into the superfusate was calculated as the fraction of tritium content in the slices or synaptosomes at the onset of the respective collection period. For calculation of the stimulated tritium overflow, the estimated basal efflux (the average of the 10 min fractions immediately before and after each stimulation) was subtracted from the total tritium efflux during the 10 min fraction which began with the 30 sec K^+ pulse. This difference was then used to calculate the percent of K^+-evoked release of acetylcholine.
In order to quantify the in vitro effect of a drug on stimulated tritium outflow, the ratio of the fraction released by a given pulse, Sn, to that evoked by S1, was determined. Data presented below are expressed as the mean fractional tritium release ± S.E.M. Statistical differences between treatments were tested by the two-tailed Student's t test or the two factor ANOVA as appropriate. Individual differences in the dose-response curve was evaluated by the Newman-Keul multiple comparison.

[1] abbreviates: Table I, formula (I) compounds, read-out: HGAL IC50.
[2] abbreviates: Table II, formula (II) compounds, read-out: hGAL IC50.

Each structure is given as a SMILES string. Read-outs that look alike come from different tables or passages of the source.

By IC50 is commonly meant the concentration that gives 50% inhibition. Take `O=S1(=O)C=C(c2ccccc2)S(=O)(=O)CC1` [Cmpd 1]: the IC50 on hGALR-1 (setting [1]) was found to be 2700 nM.

As for `NC(Cc1ccccc1)C1=CS(=O)(=O)CCS1(=O)=O` (centres unmarked) [Cmpd 3], at hGALR-1 (setting [1]), the IC50 came to 8000 nM.

With `CCCCOc1ccc(C(=O)NC(Cc2ccccc2)C2=CS(=O)(=O)CCS2(=O)=O)cc1` (centres unmarked) [Cmpd 4], the IC50 on hGALR-1 (setting [1]) turned out to be 1000 nM. Regarding `O=S1(=O)C=C(c2ccccc2)S(=O)(=O)CCC1` [Cmpd 5], the IC50 at hGALR-1 (setting [2]) was found to be 2700 nM. As to `Cc1cccc(C2=CS(=O)(=O)CCCS2(=O)=O)c1` [Cmpd 6], on hGALR-1 (setting [2]), the IC50 came to 1300 nM. The same measure, in the same setting: under `COc1cccc(C2=CS(=O)(=O)CCCS2(=O)=O)c1` [Cmpd 7] stands 910 nM.

Consider `O=S1(=O)C=C(c2cccc(Cl)c2)S(=O)(=O)CCC1` [Cmpd 8], for which the IC50 on hGALR-1 (setting [2]) was 1000 nM. Same read-out and setting: under `O=S1(=O)C=C(c2cccc(Br)c2)S(=O)(=O)CCC1` [Cmpd 9] stands 890 nM; under `O=S1(=O)C=C(c2cccc(C(F)(F)F)c2)S(=O)(=O)CCC1` [Cmpd 11], 600 nM; under `O=S1(=O)C=C(c2ccccc2Cl)S(=O)(=O)CCC1` [Cmpd 12], 640 nM. Same read-out and setting: then `O=S1(=O)C=C(c2ccc(Br)cc2)S(=O)(=O)CCC1` [Cmpd 13], with 260 nM; and `O=S1(=O)C=C(c2ccc(F)cc2)S(=O)(=O)CCC1` [Cmpd 14], with 410 nM. `O=S1(=O)C=C(c2cccc(F)c2)S(=O)(=O)CCC1` [Cmpd 16]: at Rat Galanin-1 Receptor (1 µM+GAL), the “Acetycholine Secretion Basal (change vs Control)” value is on record as -38.9%, the “Acetycholine Secretion Stimulated (change vs Control)” value is recorded as -23.9% and the “Acetycholine Secretion Basal” value came out at 2.20. Further, the “Acetycholine Secretion Basal (change vs Control)” value at Rat Galanin-1 Receptor (10 µM+GAL) was -37%. For `O=S1(=O)C=C(c2ccc(I)cc2)S(=O)(=O)CCC1` [Cmpd 17], the IC50 at hGALR-1 (setting [2]) was found to be 710 nM. On Rat Galanin-1 Receptor (1 µM+GAL), the “Acetycholine Secretion Basal (change vs Control)” value is recorded as -39.2%, the “Acetycholine Secretion Stimulated (change vs Control)” value is reported as -35.2%, the “Acetycholine Secretion Stimulated” value is recorded as 5.37 and the “Acetycholine Secretion Basal” value was 2.19. At Rat Galanin-1 Receptor (10 µM+GAL), the “Acetycholine Secretion Basal (change vs Control)” value is given as -37%, the “Acetycholine Secretion Stimulated (change vs Control)” value was -22.3%, the “Acetycholine Secretion Stimulated” value amounted to 6.44 and the “Acetycholine Secretion Basal” value was 2.27. For `Cc1ccccc1C1=CS(=O)(=O)CCCS1(=O)=O` [Cmpd 18], the IC50 on hGALR-1 (setting [2]) was found to be 1600 nM. The same measure, in the same setting: then `O=S1(=O)C=C(c2ccc(Oc3ccccc3)cc2)S(=O)(=O)CCC1` [Cmpd 19], with 410 nM; and `O=S1(=O)C=C(c2cccc(OC(F)(F)F)c2)S(=O)(=O)CCC1` [Cmpd 20], with 2700 nM.

`O=S1(=O)C=C(c2ccc(C(F)(F)F)cc2)S(=O)(=O)CCC1` [Cmpd 22]: on hGALR-1 (setting [2]), the IC50 came to 2100 nM. As to `O=S1(=O)C=C(c2ccc(OC(F)(F)F)cc2)S(=O)(=O)CCC1` [Cmpd 23], the IC50 at hGALR-1 (setting [2]) was determined as 490 nM. On to `O=S1(=O)C=C(c2ccc(-c3ccccc3)cc2)S(=O)(=O)CCC1` [Cmpd 24], for which the IC50 at hGALR-1 (setting [2]) is 600 nM. On the same count and under the same terms, under `O=S1(=O)C=C(c2ccc(C3CCCCC3)cc2)S(=O)(=O)CCC1` [Cmpd 25] stands 1100 nM; under `CCc1ccc(C2=CS(=O)(=O)CCCS2(=O)=O)cc1` [Cmpd 26], 430 nM. The same measure, in the same setting: under `O=S1(=O)C=C(c2cccc(I)c2)S(=O)(=O)CCC1` [Cmpd 27] stands 850 nM; under `CCOc1ccc(C2=CS(=O)(=O)CCCS2(=O)=O)cc1` [Cmpd 28], 590 nM; under `O=S1(=O)C=C(c2ccccc2F)S(=O)(=O)CCC1` [Cmpd 29], 430 nM. Still for that read-out and setting: under `O=S1(=O)C=C(c2ccccc2Br)S(=O)(=O)CCC1` [Cmpd 30] stands 570 nM. On to `O=S1(=O)C=C(c2ccccc2C(F)(F)F)S(=O)(=O)CCC1` [Cmpd 31], for which the IC50 at hGALR-1 (setting [2]) is 580 nM.

As to `COc1ccccc1C1=CS(=O)(=O)CCCS1(=O)=O` [Cmpd 32], at hGALR-1 (setting [2]), the IC50 was found to be 1000 nM. On to `O=C(Oc1ccccc1)c1cccc(C2=CS(=O)(=O)CCCS2(=O)=O)c1` [Cmpd 33], for which the IC50 at hGALR-1 (setting [2]) stood at 440 nM. Regarding `CCOC(=O)c1ccc(C2=CS(=O)(=O)CCCS2(=O)=O)cc1` [Cmpd 34], the IC50 on hGALR-1 (setting [2]) came out at 1000 nM. On the same count and under the same terms, then `O=S1(=O)C=C(c2ccc(S(=O)(=O)c3ccccc3)cc2)S(=O)(=O)CCC1` [Cmpd 35], with 1580 nM. Same read-out and setting: then `CCCNC(=O)c1ccc(C2=CS(=O)(=O)CCCS2(=O)=O)cc1` [Cmpd 36], with 1040 nM. Same read-out and setting: under `O=S1(=O)C=C(c2cccc3ccccc23)S(=O)(=O)CCC1` [Cmpd 37] stands 371 nM; under `O=C(NCCc1ccccc1)c1ccc(C2=CS(=O)(=O)CCCS2(=O)=O)cc1` [Cmpd 38], 1060 nM. On to `O=S1(=O)C=C(c2cccs2)S(=O)(=O)CCC1` [Cmpd 40], for which the IC50 on hGALR-1 (setting [2]) was determined as 1300 nM. Same read-out and setting: under `O=S1(=O)C=C(c2ccsc2)S(=O)(=O)CCC1` [Cmpd 41] stands 1300 nM.
